Experimental data published in PMC10247784, “Physiological activation of human and mouse bitter taste receptors by bile acids” (Communications Biology, 2023).

Target: T1, mouse Tas2r144 (Mus musculus, UniProt Q7TQB8)
T1 construct: expressed in transfected cells; host or cells: HEK293T-Gα16gust44
Experiment: Calcium imaging assay (FLIPR), HEK293T-Gα16gust44 cells transfected with mouse Tas2r144
Format: cell-based
Details: for Δ F/F: Tas2r144
Procedure: This set of bile acids was chosen because of their commercial availability in high purities, their diversity within the class of bile acids and their previous detection and quantitation in human blood. Stock solutions were prepared in DMSO.
As basal growth medium for the HEK293T-Gα16gust44 cell line[17],[59] served Dulbecco’s modified eagle medium (DMEM) (Thermo Fisher Scientific, Darmstadt, Germany) supplemented with 10 % fetal bovine serum (Sigma-Aldrich, Steinheim, Germany), 2 mM L-glutamine (Sigma-Aldrich, Steinheim, Germany), 100 units/ml penicillin (Sigma Aldrich, Steinheim, Germany) and 100 µg/ml streptomycin (Sigma Aldrich, Steinheim, Germany). Growth conditions were 37 °C, 5 % CO2 and saturated air-humidity[60].
HEK293T-Gα16gust44 cells were seeded on poly-D-lysine (10 µg/ml) coated 96-well plates to reach a confluence of 40-60 % the next day. For transient transfection 150 ng of plasmid DNA containing the receptor of interest and 0.3 µl lipofectamine 2000 (Thermo Fisher Scientific, Darmstadt, Germany) per well were used and transfection took place according to the manual of lipofectamine 2000. […] The empty vector DNA (mock) was transfected as negative control[14],[41].
Cells were loaded using the calcium-sensitive fluorescent dye Fluo-4-AM (Abcam, Cambridge, Great Britain) in the presence of 2.5 mM probenecid (Sigma-Aldrich, Steinheim, Germany) the day after transfection[13],[41]. 1 h after loading, cells were washed with C1 buffer using a BioTek Cell Washer, incubated in the dark for half an hour and washed again. For automated agonist application and measurement of fluorescence changes, a FLIPR^TETRA device (Molecular Devices, San José, United States) was used. Viability of cells was tested by application of 100 nM Somatostatin 14 (Bachem, Bubendorf, Switzerland)[42].
Measured data were negative control corrected by subtracting the signal of the mock-transfected cells and exported to Microsoft Excel using the FLIPR software ScreenWorks 4.2. In Microsoft Excel software, standardization of maximum fluorescence intensities to the basal fluorescence and normalization to the buffer-only control was done to calculate the relative fluorescence changes (ΔF/F).
Initial screening experiments performed in duplicate wells were confirmed by at least one replication and representative traces were selected for display. All dose-response relationships were determined by three independent experiments (biological replicates) performed in duplicates (technical replicates). Threshold concentrations, defined as lowest substance concentrations leading to statistically significant elevated fluorescence changes in receptor-transfected cells compared with empty vector-transfected cells, were determined using SigmaPlot with Student’s t-test to evaluate statistical significance (p < 0.01).

T1 sequence (Q7TQB8 whole entry): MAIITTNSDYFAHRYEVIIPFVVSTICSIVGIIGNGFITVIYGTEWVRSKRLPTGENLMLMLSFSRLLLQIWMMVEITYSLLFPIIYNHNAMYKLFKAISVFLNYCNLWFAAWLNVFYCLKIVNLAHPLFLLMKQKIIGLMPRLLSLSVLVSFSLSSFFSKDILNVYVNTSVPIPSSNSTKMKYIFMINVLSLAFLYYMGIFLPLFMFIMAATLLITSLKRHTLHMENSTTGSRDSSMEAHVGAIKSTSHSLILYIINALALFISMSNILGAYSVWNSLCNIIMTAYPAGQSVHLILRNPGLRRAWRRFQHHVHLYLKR

Compound: C[C@H](CCC(=O)NCCS(=O)(=O)O)[C@H]1CC[C@H]2[C@@H]3[C@H](O)C[C@@H]4C[C@H](O)CC[C@]4(C)[C@H]3C[C@H](O)[C@]12C [Taurocholic Acid, taurocholic acid]
- Δ F/F (conc. 0,01 mM): -0.002199
- Δ F/F (conc. 0,1 mM): 0.02935
- Δ F/F (conc. 0,03 mM): 0.001887
- Δ F/F (conc. 0,3 mM): 0.09426
- Δ F/F (conc. 0,003 mM): -2.869e-5
- RLU (Time 0 s): 0 RLU
- RLU (Time 2 s): 20.3472 RLU
- RLU (Time 4 s): -2.315 RLU
- RLU (Time 6 s): 2.885 RLU
- RLU (Time 8 s): 19.0475 RLU
- RLU (Time 12 s): 10.0521 RLU
- RLU (Time 14 s): 38.5551 RLU
- RLU (Time 16 s): 31.9896 RLU
- RLU (Time 18 s): 16.9759 RLU
- RLU (Time 18.781 s): 35.5911 RLU
- RLU (Time 20.781 s): -26.0614 RLU
- RLU (Time 22.781 s): 10.3855 RLU
- RLU (Time 24.781 s): 42.5149 RLU
- RLU (Time 26.781 s): 75.1117 RLU
- RLU (Time 28.781 s): 107.959 RLU
- RLU (Time 30.781 s): 191.931 RLU
- RLU (Time 32.781 s): 233.393 RLU
- RLU (Time 34.781 s): 329.647 RLU
- RLU (Time 36.781 s): 353.155 RLU
- RLU (Time 38.781 s): 375.923 RLU
- RLU (Time 40.781 s): 418.403 RLU
- RLU (Time 42.781 s): 459.472 RLU
- RLU (Time 44.781 s): 478.994 RLU
- RLU (Time 46.781 s): 502.94 RLU
- RLU (Time 48.781 s): 488.439 RLU
- RLU (Time 50.781 s): 507.687 RLU
- RLU (Time 52.781 s): 535.446 RLU
- RLU (Time 54.781 s): 537.48 RLU
- RLU (Time 56.781 s): 552.298 RLU
- RLU (Time 58.781 s): 553.568 RLU
- RLU (Time 60.781 s): 540.78 RLU
- RLU (Time 62.781 s): 553.576 RLU
- RLU (Time 64.781 s): 587.565 RLU
- RLU (Time 66.781 s): 607.94 RLU
- RLU (Time 68.781 s): 577.506 RLU
- RLU (Time 70.781 s): 560.61 RLU
- RLU (Time 72.781 s): 573.499 RLU
- RLU (Time 74.781 s): 563.961 RLU
- RLU (Time 76.781 s): 534.766 RLU
- RLU (Time 78.781 s): 571.912 RLU
- RLU (Time 80.781 s): 551.232 RLU
- RLU (Time 82.781 s): 526.613 RLU
- RLU (Time 84.781 s): 546.451 RLU
- RLU (Time 86.781 s): 562.077 RLU
- RLU (Time 88.781 s): 533.968 RLU
- RLU (Time 90.781 s): 548.478 RLU
- RLU (Time 92.781 s): 529.823 RLU
- RLU (Time 94.781 s): 519.583 RLU
- RLU (Time 96.781 s): 507.965 RLU
- RLU (Time 98.781 s): 551.349 RLU
- RLU (Time 100.781 s): 524.649 RLU
- RLU (Time 102.781 s): 541.47 RLU
- RLU (Time 104.781 s): 532.417 RLU
- RLU (Time 106.781 s): 501.886 RLU
- RLU (Time 108.781 s): 527.817 RLU
- RLU (Time 110.781 s): 463.149 RLU
- RLU (Time 112.781 s): 531.02 RLU
- RLU (Time 114.781 s): 478.341 RLU
- RLU (Time 116.781 s): 478.013 RLU
- RLU (Time 118.781 s): 466.916 RLU
- RLU (Time 120.781 s): 480.033 RLU
- RLU (Time 122.781 s): 446.768 RLU
- RLU (Time 124.781 s): 466.738 RLU
- RLU (Time 126.781 s): 436.51 RLU
- RLU (Time 128.781 s): 391.35 RLU
- RLU (Time 130.781 s): 423.189 RLU
- RLU (Time 132.781 s): 388.666 RLU
- RLU (Time 134.781 s): 393.586 RLU
- RLU (Time 136.781 s): 381.514 RLU
- RLU (Time 137.562 s): 357.695 RLU
- RLU (Time 143.562 s): 342.181 RLU
- RLU (Time 149.562 s): 317.247 RLU
- RLU (Time 155.562 s): 281.598 RLU
- RLU (Time 161.562 s): 257.735 RLU
- RLU (Time 167.562 s): 210.766 RLU
- RLU (Time 173.562 s): 206.542 RLU
- RLU (Time 179.562 s): 190.508 RLU
- RLU (Time 185.562 s): 200.355 RLU
- RLU (Time 191.562 s): 160.215 RLU
- RLU (Time 197.562 s): 155.746 RLU
- RLU (Time 203.562 s): 134.432 RLU
- RLU (Time 209.562 s): 105.802 RLU
- RLU (Time 215.562 s): 143.523 RLU
- RLU (Time 221.562 s): 59.3524 RLU
- RLU (Time 227.562 s): 55.9412 RLU
- RLU (Time 233.562 s): 52.6104 RLU
- RLU (Time 239.562 s): 63.4802 RLU
- RLU (Time 245.562 s): 58.9605 RLU
- RLU (Time 293.562 s): 59.2604 RLU
- RLU (Time 299.562 s): 83.1975 RLU
- RLU (Time 305.562 s): 80.6402 RLU
- RLU (Time 311.562 s): 35.6084 RLU
- RLU (Time 317.562 s): 31.2984 RLU
- RLU (Time 323.562 s): -1.058 RLU
- RLU (Time 329.562 s): 12.6222 RLU
- RLU (Time 335.562 s): -16.6341 RLU
- RLU (Time 341.562 s): 9.34 RLU
- RLU (Time 347.562 s): 17.8158 RLU
- RLU (Time 353.562 s): 33.5062 RLU
- RLU (Time 359.562 s): 34.8754 RLU
- Activation threshold concentration Tas2r144 (p < 0.01 vs empty vector): 300 µM
